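Five concentrations, 48 hours, 96-well plates. GI50 is the concentration that inhibits growth by half.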 Activity calls are given as the source filed them. No stated cut-off is given here; in the data, active = GI50 up to about 1.1 µM and inactive = higher.
Assays:
Assay in all cases: NCI anticancer screen, dose series, 48 h
SNB-19 = system: SNB-19
SF-539 = system: SF-539
SK-MEL-28 = system: SK-MEL-28
OVCAR-5 = system: OVCAR-5
LOX IMVI = system: LOX IMVI
UACC-62 = system: UACC-62
SN12C = system: SN12C
HCT-116 = system: HCT-116
M19-MEL = system: M19-MEL
MOLT-4 = system: MOLT-4
SK-MEL-2 = system: SK-MEL-2
HL-60 = system: HL-60
EKVX = system: EKVX
CCRF-CEM = system: CCRF-CEM
HOP-92 = system: HOP-92
K562 = system: K562
SK-MEL-5 = system: SK-MEL-5

Measured: GI50

COc1ccc(CC2NCCc3c2[nH]c2ccccc32)cc1 (centres undefined)
inactive: SNB-19 > 100 µM | SF-539 42.1 µM | SK-MEL-28 > 100 µM | OVCAR-5 > 100 µM | LOX IMVI 42 µM | UACC-62 > 100 µM | SN12C 40.9 µM | HCT-116 40 µM | M19-MEL 71.4 µM | MOLT-4 31.9 µM | SK-MEL-2 > 100 µM | HL-60 22.4 µM | EKVX > 100 µM | CCRF-CEM 46.2 µM | HOP-92 16 µM | K562 32.6 µM | SK-MEL-5 40.9 µM

O=C(/C(=C/c1ccccc1)c1ccccc1)N1c2ccccc2CC1c1c[nH]c2ccccc12 (centres undefined)
inactive: SNB-19 23.7 µM | SF-539 > 100 µM | SK-MEL-28 > 100 µM | OVCAR-5 38.6 µM | LOX IMVI 21.6 µM | UACC-62 > 100 µM | SN12C 22.2 µM | HCT-116 5.51 µM | M19-MEL 38.6 µM | MOLT-4 3.33 µM | SK-MEL-2 6.03 µM | HL-60 3.19 µM | EKVX 25.2 µM | CCRF-CEM 8.91 µM | HOP-92 81.1 µM | K562 5.05 µM | SK-MEL-5 21.7 µM
